Laboratory results published in the CheMixHub viscosity set.

Assay: xn = mol fraction of the nth substance listed

ClC(Cl)=C(Cl)Cl + ClC(Cl)(Cl)Cl
Conditions | viscosity [mPa·s]
298.15 K, 101 kPa, x2 = 0.0973 | 0.8311
298.15 K, 101 kPa, x2 = 0.1594 | 0.8241
298.15 K, 101 kPa, x2 = 0.244 | 0.8182
298.15 K, 101 kPa, x2 = 0.3103 | 0.8153
298.15 K, 101 kPa, x2 = 0.4139 | 0.813
298.15 K, 101 kPa, x2 = 0.4636 | 0.8122
298.15 K, 101 kPa, x2 = 0.5633 | 0.814
298.15 K, 101 kPa, x2 = 0.63 | 0.8216
298.15 K, 101 kPa, x2 = 0.6339 | 0.8211
298.15 K, 101 kPa, x2 = 0.7582 | 0.8392
298.15 K, 101 kPa, x2 = 0.8067 | 0.8482
298.15 K, 101 kPa, x2 = 0.9135 | 0.8744
303.15 K, 101.33 kPa, x1 = 0.3238 | 0.818
303.15 K, 101.33 kPa, x1 = 0.402 | 0.814
303.15 K, 101.33 kPa, x1 = 0.56 | 0.808
303.15 K, 101.33 kPa, x1 = 0.6543 | 0.801
303.15 K, 101.33 kPa, x1 = 0.7629 | 0.8
303.15 K, 101.33 kPa, x1 = 0.8308 | 0.798
303.15 K, 101.33 kPa, x1 = 0.9128 | 0.797

CCOCCOCCO + ClC(Cl)=C(Cl)Cl
298.15 K, 101.33 kPa
Conditions | viscosity [mPa·s]
x1 = 0.0123 | 0.859
x1 = 0.0256 | 0.874
x1 = 0.0478 | 0.903
x1 = 0.0645 | 0.928
x1 = 0.0824 | 0.956
x1 = 0.097 | 0.979
x1 = 0.1126 | 1.012
x1 = 0.1488 | 1.081
x1 = 0.1758 | 1.135
x1 = 0.2057 | 1.196
x1 = 0.2427 | 1.278
x1 = 0.2829 | 1.371
x1 = 0.3332 | 1.493
x1 = 0.3756 | 1.61
x1 = 0.4139 | 1.717
x1 = 0.4562 | 1.843
x1 = 0.4889 | 1.949
x1 = 0.5216 | 2.063
x1 = 0.5734 | 2.246
x1 = 0.6176 | 2.412
x1 = 0.6576 | 2.552
x1 = 0.6972 | 2.699
x1 = 0.7396 | 2.858
x1 = 0.8033 | 3.119
x1 = 0.854 | 3.335
x1 = 0.8945 | 3.519
x1 = 0.9227 | 3.64
x1 = 0.9398 | 3.718
x1 = 0.9556 | 3.786
x1 = 0.9736 | 3.873
x2 = 0.0112 | 3.936

CCOCCOCCO + ClC=C(Cl)Cl
298.15 K, 101.33 kPa
Conditions | viscosity [mPa·s]
x1 = 0.0082 | 0.539
x1 = 0.0263 | 0.563
x1 = 0.0381 | 0.58
x1 = 0.0517 | 0.602
x1 = 0.0641 | 0.62
x1 = 0.0756 | 0.639
x1 = 0.0944 | 0.669
x1 = 0.129 | 0.736
x1 = 0.1724 | 0.823
x1 = 0.2108 | 0.91
x1 = 0.2459 | 0.997
x1 = 0.2921 | 1.117
x1 = 0.3336 | 1.235
x1 = 0.3791 | 1.376
x1 = 0.4231 | 1.528
x1 = 0.457 | 1.659
x1 = 0.4908 | 1.788
x1 = 0.5204 | 1.902
x1 = 0.557 | 2.042
x1 = 0.5875 | 2.163
x1 = 0.632 | 2.342
x1 = 0.6736 | 2.519
x1 = 0.7163 | 2.701
x1 = 0.7635 | 2.912
x1 = 0.7976 | 3.068
x1 = 0.8333 | 3.224
x1 = 0.8779 | 3.423
x1 = 0.9203 | 3.621
x1 = 0.9414 | 3.723
x1 = 0.9717 | 3.857
x2 = 0.018 | 3.895

CCCCCCCCCCCCCC + Clc1ccccc1
viscosity [mPa·s], 101 kPa
Conditions | x1 = 0.1001 | x1 = 0.1937 | x1 = 0.295 | x1 = 0.3916 | x1 = 0.494 | x1 = 0.5998 | x1 = 0.6984 | x1 = 0.8002 | x1 = 0.9001
298.15 K | 0.844 | 0.945 | 1.063 | 1.151 | 1.266 | 1.38 | 1.495 | 1.609 | 1.724
303.15 K | 0.789 | 0.877 | 0.964 | 1.097 | 1.161 | 1.226 | 1.291 | 1.354 | 1.419
308.15 K | 0.746 | 0.819 | 0.932 | 0.991 | 1.041 | 1.19 | 1.241 | 1.219 | 1.397

ClC(Cl)=C(Cl)Cl + Clc1ccccc1
303.15 K, 101 kPa
Conditions | viscosity [mPa·s]
x1 = 0.1416 | 0.716
x1 = 0.2048 | 0.717
x1 = 0.2727 | 0.718
x1 = 0.3562 | 0.72
x1 = 0.4651 | 0.728
x1 = 0.5412 | 0.739
x1 = 0.6279 | 0.751
x1 = 0.718 | 0.766
x1 = 0.8422 | 0.786
x1 = 0.9302 | 0.802

O=C(c1ccccc1)c1ccc2n1CCC2C(=O)[O-].[NH3+]C(CO)(CO)CO (stereo not given) + O
viscosity [mPa·s], 101 kPa
Conditions | 293.15 K | 298.15 K | 303.15 K | 308.15 K | 313.15 K
x1 = 0.0002 | 1.037 | 0.9251 | 0.8319 | 0.7538 | 0.688
x1 = 0.0007 | 1.071 | 0.9598 | 0.8666 | 0.7882 | 0.723
x1 = 0.001 | 1.105 | 0.9936 | 0.9005 | 0.822 | 0.7569

O=C[C@H](O)[C@@H](O)[C@H](O[C@@H]1O[C@H](CO)[C@H](O)[C@H](O)[C@H]1O)[C@H](O)CO + O
viscosity [mPa·s]
Conditions | 100 kPa | 101 kPa
293.15 K, x1 = 0.002 | – | 1.074
293.15 K, x1 = 0.004 | – | 1.155
293.15 K, x1 = 0.005 | – | 1.241
298.15 K, x1 = 0.002 | 0.976 | 0.9875
298.15 K, x1 = 0.004 | – | 1.065
298.15 K, x1 = 0.005 | – | 1.149
303.15 K, x1 = 0.002 | 0.873 | 0.8893
303.15 K, x1 = 0.004 | – | 0.9654
303.15 K, x1 = 0.005 | – | 1.047
308.15 K, x1 = 0.001805 | – | 0.784
308.15 K, x1 = 0.002 | 0.786 | 0.7922
308.15 K, x1 = 0.003683 | – | 0.864
308.15 K, x1 = 0.004 | – | 0.8716
308.15 K, x1 = 0.005 | – | 0.9524
308.15 K, x1 = 0.005432 | – | 0.934
308.15 K, x1 = 0.006317 | – | 0.966
308.15 K, x1 = 0.007218 | – | 1.012
308.15 K, x1 = 0.008098 | – | 1.063
313.15 K, x1 = 0.002 | 0.709 | 0.7014
313.15 K, x1 = 0.004 | – | 0.7822
313.15 K, x1 = 0.005 | – | 0.8636
318.15 K, x1 = 0.001802 | – | 0.601
318.15 K, x1 = 0.002729 | – | 0.621
318.15 K, x1 = 0.003613 | – | 0.642
318.15 K, x1 = 0.004521 | – | 0.67
318.15 K, x1 = 0.006298 | – | 0.725
318.15 K, x1 = 0.007249 | – | 0.757
318.15 K, x1 = 0.01074 | – | 0.885
